Source: patent US6906205B2, “Spiro and dispiro 1,2,4-trioxolane antimalarials” (Medicines for Malaria Venture MMV, priority 2002, dated 2005)
≈ marks a conversion by molar mass, not a printed value.

What was measured:
[1] = format: physicochemical
Description: It is presumed that thermal decomposition of these trioxolanes was initiated by formation of a 1,5 diradical produced by homolytic cleavage of the peroxide bond of the trioxolane ring.

P. falciparum = test: in vitro potency against P. falciparum (strain not stated); format: cell-based; settings: Plasmodium falciparum
neuroblastoma cell line = test: toxicity in a neuroblastoma cell line; format: cell-based
[2] = test system: ANKA strain of P. berghei; test: single dose STI in vivo screen in infected mice; design: species or system Plasmodium berghei
Outline: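 Groups of 3-5 Moro SPF or NMRI mice infected with the ANKA strain of P. berghei received a single dose of trioxolane on day one post-infection. The compound was given in 3% ethanol and 7% Tween 80 or in SSV (0.5% w/v CMC, 0.5% v/v benzyl alcohol, 0.4% v/v Tween 80, 0.9% w/v sodium chloride in water). Antimalarial activity was scored as percent reduction in parasitemia on day three and as survival time versus untreated controls. Survival to day 30 counted as cure.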

[3] = test system: P. falciparum K1 strain (Thailand resistant to chloroquine); test: semiautomated microdilution assay, [3H]-hypoxanthine incorporation, K1 strain; format: cell-based, Plasmodium falciparum; settings: Plasmodium falciparum; K1 strain, 72 h incubation; read-out: IC50 (ng/ml) K1
Outline: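 IC50 values come from logit regression of semiautomated microdilution data obtained on intraerythrocytic parasites drawn from asynchronous cultures.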

[4] = test system: Schistosoma mansoni adult schistosomes (49-day-old); test: effect on adult schistosomes (49-day-old) in mice; format: in vivo
Protocol: Mice were infected with 100 Schistosoma mansoni cercariae […]. Each group was treated per os with OZ compounds at single doses of 200, 400, and 600 mg/kg. […] All groups were killed 4 weeks after treatment and the liver and intestine were removed and separated. The liver and intestine were compressed and alive male and female worms could be seen and counted.

[5] = test system: ANKA strain of Plasmodium berghei; test: single dose ED50/ED90/ED99 determinations in infected mice; format: in vivo; settings: single dose po in SSV, mice, percent reduction in parasitemia on day three post-infection
Outline: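 Mice (Moro SPF or NMRI, n=3 per group) infected with P. berghei ANKA received a single dose on day 1 post-infection, vehicle 0.5% CMC/0.5% benzyl alcohol/0.4% Tween 80/0.9% NaCl in water. Read-out is percent reduction in parasitemia on day 3; ED values by nonlinear fitting.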

[6] = Rane test, single 640 mg/kg doses in mice; format: in vivo

C[C@@H]1CC[C@H]2[C@@H](C)C(=O)O[C@@H]3O[C@@]4(C)CC[C@@H]1[C@]32OO4 [Artemisinin, artemisinin]
Tm, dec (DSC thermal stability) [1]: 181 °C

O=C1CCC2(CC1)OOC1(O2)C2CC3CC(C2)CC1C3 (centres unmarked) [OZ05]
IC50 (P. falciparum): 1 to 5 ng/mL (≈ 3.59 to 18 nM) | toxicity in a neuroblastoma cell line (neuroblastoma cell line): no toxicity | Activity (%) po ([2]; percent reduction in parasitemia day 3 post-infection, single 10 mg/kg po in 3% ethanol and 7% Tween 80, mice): 94% | Activity (%) sc ([2]; percent reduction in parasitemia day 3 post-infection, single 10 mg/kg sc in 3% ethanol and 7% Tween 80, mice): 99.7% | Activity (%) SSVpo ([2]; percent reduction in parasitemia day 3 post-infection, single po dose in standard suspending vehicle (SSV), mice): 74% | Survival (days) po ([2]; single 10 mg/kg po in 3% ethanol and 7% Tween 80, untreated control 5.6 ± 0.3): 7.1 days | Survival (days) sc ([2]; single 10 mg/kg sc in 3% ethanol and 7% Tween 80, untreated control 5.6 ± 0.3): 8.6 days | Survival (days) SSVpo ([2]; single po dose in SSV, untreated control 5.6 ± 0.3): 6.2 days | IC50 [3]: 0.19 ng/mL (≈ 0.683 nM) | adult worms at day 49, per os 200 mg/kg, DEAD WORM (%) ([4]; single 200 mg/kg per os): 12% | adult worms at day 49, per os 400 mg/kg, DEAD WORM (%) ([4]; single 400 mg/kg per os): 32% | adult worms at day 49, per os 600 mg/kg, DEAD WORM (%) ([4]; single 600 mg/kg per os): 58% | ED50 ([5]; Plasmodium berghei, read-out: ED50): 8.7 mg/kg | ED90 [5]: 12 mg/kg | ED99 [5]: 15 mg/kg | toxicity at single 640 mg/kg doses in mice in the Rane test [6]: no toxicity
